For series [1], the system named is Cell Line 1 (CHO) expressing Antibody 1. As to the kind of experiment: Cell culture performance (cell growth, viability, titer), Cell Line 1 3 L bioreactor fed-batch culture. Type of series: cell-based, Chinese Hamster. The method, then:
A recombinant Chinese Hamster Ovary (CHO) cell line (Cell Line 1) expressing a humanized monoclonal antibody (Antibody 1) was evaluated in 2 different cultures vessels (shaker flasks and 3 L laboratory-scale bioreactors). The cell line was of CHO DUX-B11 origin based on a DHFR (dihydrofolate reductase) expression system and cultured in a chemically defined basal media, and fed periodically with a chemically-defined feed media (CDFM). The media utilized throughout all of the experiments were chemically-defined, and both animal-component free, and protein-free. Each of the respective media were supplemented as needed with selected bioflavonoids to evaluate for their potential impact on the resulting acidic species profile. In preparation of the cultures, the cell lines were serially expanded through separate seed train inoculums to generate enough cells for inoculation. Process conditions utilized during the cultures were slightly different depending on the culture scale, but similar within each scale to the respective non-bioflavonoid supplemented control conditions. All bioflavonoids utilized were purchased from Sigma-Aldrich (St. Louis, Mo.).
Viable cell density (VCD) and cell viability values were measured through trypan blue exclusion via Cedex automated cell counters (Roche Applied Science, Indianapolis, Ind.), glucose and lactate values were measured with a ABL-805 (Radiometer Medical, Denmark) blood gas analyzer. Offline pH, dissolved oxygen (DO), and pCO2 measurements were performed as needed with an ABL-805 (Radiometer Medical, Denmark) blood gas analyzer. Osmolality was measured as needed on a Multi-Osmette 2430 osmometer (Precision Systems, Natick, Mass.).
Antibody titers were measured from crude cell culture harvests on a Poros A™ (Life Technologies, Carlsbad, Calif.) affinity column using an HPLC system operating with a low pH, step elution gradient with detection at 280 nm. Absolute concentrations were assigned with respect to reference standard calibration curves.
In the next experiment, lab-scale bioreactors were used to (1) confirm the shaker experiment results and (2) to determine whether higher concentration range of EGCG is suitable for supplementing into cell culture. EGCG was added to the feed of the batch culture at the concentrations of 20 mg/L (mid), 50 mg/L (high) and 125 mg/L (high+) and 250 mg/L (high++) in this reactor experiment.
Cell Line 1 was evaluated in larger-scale feed batch cultures with the feed media supplemented with various bioflavonoids. […] By contrast, cell growth performance was slightly different for the 0.1 g/L EGCG supplemented condition. […] However, the cell viability remained high at 0.1 g/L EGCG. All cultures were successfully harvested on Day 15 post-inoculation. The harvest titers measured from the evaluated cultures were similar.
Cell Line 1 was also evaluated in laboratory-scale fedbatch cultures with the feed media supplemented with various bioflavonoids. […] Cell growth performance was slightly different however with the 0.1 g/L EGCG supplemented condition. […] All cultures were able to be successfully harvested on Day 15 post-inoculation.

For series [2] the test system is unchanged. The series can be described thus: Intracellular ROS by flow cytometry (H2-DCF), Cell Line 1 3 L bioreactor culture. It is filed as cell-based, Chinese Hamster. Particulars: bioreactor cultures; Days 6, 8, 12, 15; vs unsupplemented control. The protocol:
At least 10×10^6 cells were harvested from 3 L bioreactor cultures on Days 6, 8, 12, and 15 after inoculation. Immediately after sampling, the samples were centrifuged and the cell pellet was washed with 1×PBS, and re-suspended in 1 mL of pre-warmed 1×PBS. 2 μL of 2 mM H2-DCF (Life Technologies, Grand Island, N.Y.) in DMSO (Sigma-Aldrich, St. Louis, Mo.) was then added and incubated at 37° C. for 30 minutes and covered from light. The cell suspension was then centrifuged and resuspended in 1×PBS twice to wash the cells and remove residual fluorophore. The cells were then loaded onto a FACSCalibur (Becton Dickinson, Franklin Lakes, N.J.) flow cytometer for the measurement of intracellular ROS at 492-495 nm/517-527 nm excitation/emission.
For orientation: In flow cytometry, cells or beads pass a laser one at a time.

Series [3] has as its system Cell Line 2 (CHO) expressing Antibody 2. As to the kind of experiment: Acidic species variants (WCX-10) of Antibody 2, Cell Line 2 shake flask culture. Type of series: cell-based, Chinese Hamster. Particulars: 0.05 and 0.1 g/L; shaker. The protocol: (§1) Four different recombinant Chinese Hamster Ovary (CHO) cell lines expressing four different recombinant glycoproteins were evaluated in either shaker flask culture, or 3 L laboratory scale bioreactors. Cell Line 1 was genetically engineered to express Antibody 1, Cell Line 2 was genetically engineered to express Antibody 2, Cell Line 3 was genetically engineered to express dual variable domain immunoglobulin 1 (DVD1) and Cell Line 4 was genetically engineered to express dual variable domain immunoglobulin 2 (DVD2).
Charge Heterogeneity via Weak Cation Exchange Chromatography-Samples were analyzed using an HPLC system equipped with a ProPac WCX-10 analytical column (Thermo Scientific, Sunnyvale, Calif.). Approximately 100 μg of sample was loaded in 6% Buffer B (10 mM sodium phosphate, 500 mM NaCl, pH 5.5) and 94% Buffer A (10 mM sodium phosphate, pH 7.5). The column was run at a flow rate of 1.0 mL/min. […] The protein peaks were measured using UV absorbance at 280 nm as the peaks eluted from the column. […]
To further evaluate the impact of EGCG on acidic region variants, Antibody 2 and dual variable domain immunoglobulin 1 (DVD1) were examined. Antibody 2 was evaluated in a set of shaker and lab-scale bioreactor experiments with two feed amounts (100% and 50%) as unsupplemented control conditions. […]

Series [4] concerns Cell Line 3 (CHO) expressing DVD1. As to the kind of experiment: Acidic species variants (WCX-10) of DVD1, Cell Line 3 shake flask culture. Type of series: cell-based, Chinese Hamster. Particulars: shaker. The method, then:
as §1
Charge Heterogeneity via Weak Cation Exchange Chromatography-Samples were analyzed using an HPLC system equipped with a ProPac WCX-10 analytical column (Thermo Scientific, Sunnyvale, Calif.). Approximately 100 μg of sample was loaded in 6% Buffer B (10 mM sodium phosphate, 500 mM NaCl, pH 5.5) and 94% Buffer A (10 mM sodium phosphate, pH 7.5). The column was run at a flow rate of 1.0 mL/min. The protein was eluted from the column by increasing the buffer B composition from 6% to 16% over 20 minutes. The protein peaks were measured using UV absorbance at 280 nm as the peaks eluted from the column. The column was regenerated using 100% buffer B followed be a re-equilibration period using initial condition before the injection of the next sample. Peaks eluting before the main peak were termed ‘acidic peaks’ and peaks eluting after the main peak were called ‘basic peaks’ (FIG. 2).
To assess the impact of EGCG on acidic region variants on recombinant proteins, dual variable domain immunoglobulin 1 (DVD1) was examined. EGCG was added at the concentrations of 0.02 g/L, 0.05 g/L, 0.1 g/L and 0.2 g/L into the feed in a shaker experiment (See Table 2). […] At the concentration of 0.2 g/L, EGCG led to 15% viability decrease and 28% productivity loss compared to control condition. Upon measurement of the acidic species variants, EGCG supplement reduced the total acidic species in a dose-dependent manner. At the concentrations of 0.02 g/L, 0.05 g/L, 0.1 g/L and 0.2 g/L respectively, EGCG reduced the total acidic species content 5%, 10%, 17% and 22% relatively compared to the unsupplemented control (FIG. 13D).

Series [5] shares this test system. The series can be described thus: Cell culture performance, Cell Line 3 shake flask culture. The following applies: shaker.

The values that follow come from patent US9416181B2, “Compositions for cell culture and methods of using the same” (AbbVie Inc., priority 2013, dated 2016).

“Also recorded” adds a separate entry of the source.

Consider `O=C(O[C@@H]1Cc2c(O)cc(O)cc2O[C@@H]1c1cc(O)c(O)c(O)c1)c1cc(O)c(O)c(O)c1` [EGCG, epigallocatechin gallate], for which, in series [1] (0.05 g/L in CDFM, bioreactor, Day 8), the “peak viable cell density” value is “approximately 12×10^6 cells/mL”. Moreover, the “harvest titer vs control” value in series [1] (0.05 g/L in CDFM, bioreactor, Day 15 harvest) is “outperforming the control condition by a nominal amount; also recorded: outperformed the control condition by a nominal amount”. Further, the “cell growth profile vs unsupplemented control” value in series [1] (0.1 g/L in CDFM, bioreactor) is given as “lower than the unsupplemented control culture”. Also, the cell viability result in series [1] (0.1 g/L in CDFM, bioreactor) is on record as “remained high”. The “impact on cell culture performance” value in series [1] (250 mg/L in feed, bioreactor) is “reduction in early cell culture viability and titer reduction”. For the same compound, the “impact on cell culture performance (cell growth, viability, titer)” value in series [1] (20, 50 and 125 mg/L in 1.5×JCL5 feed media, bioreactor) was “no impact on cell culture performance”. Further, the “concentration (turning point) at which peak viable cell density began to drop lower than unsupplemented control” value in series [1] (Cell Line 1) turned out to be 125 µg/mL. Also, the “intracellular ROS level” value in series [2] is reported as “marked reduction of overall ROS level; also recorded: reduced the intracellular ROS level in a dose-dependent fashion”. Also, the “relative reduction of total acidic species content vs unsupplemented control” value was 21%-45% in series [3]; 5% in series [4] (0.02 g/L in feed); 10% in series [4] (0.05 g/L in feed); 17% in series [4] (0.1 g/L in feed); 22% in series [4] (0.2 g/L in feed). In series [5] (0.02, 0.05 and 0.1 g/L in feed), the “growth profile, viability and productivity vs control” value is “performed very similarly to control cultures”. The “viability decrease compared to control” value in series [5] (0.2 g/L in feed) came to 15%.
